This assay relates to A375 human melanoma cancer cell derived xenografts, intracranial. As to the kind of experiment: Example 12 efficacy study, intracranial A375-luciferase CNS model: survival. Format: in vivo, BALB/c nude mice. Conditions: 35 mg/kg PO/QD; vehicle median 18 days. As to the method: For the efficacy study, agents were tested in A375 human melanoma cancer cell derived xenografts (CDX). This cell line was isolated from the primary melanoma of a person and is known to have a homozygous BRAF V600E mutation. The A375 tumor cells were maintained in vitro in DMEM medium supplemented with 10% fetal bovine serum and 1% Penicillin-Streptomycin at 37° C. in an atmosphere of 5% CO2 in air. The tumor cells were routinely subcultured twice weekly. The cells growing in an exponential growth phase were harvested and counted for tumor inoculation.
For this CNS study, A375 cells with a luciferase tag for tracking tumor cell signal, were injected intracranially into 6-8-week-old female BALB/c nude mice (Zhejiang Vital River Laboratory Animal Co., LTD. Beijing, China). The mice were anaesthetized, restrained, and sterilized prior to surgery. A sagittal cut was made above the anterior parietal and occipital bone with sterilized scalpel, the skull was unrevealed and cleaned with cotton bud, in this case the anterior fontanel could be available. A 2 mm hole was created to the right of the anterior fontanel and 0.5 mm ahead of the coronal on the skull with a cranial drill. Cell suspensions in 20% Matrigel were mixed and aspirated into injector carefully to avoid bubbles and wiped to avoid extracranial tumor genesis. The needle was inserted vertically into the cranial hole and the cell mixture was slowly injected for 2 minutes and held for another minute to decrease the drainage of the cell suspension. The wound was closed, and a subcutaneous injection of 5 mg/kg Meloxicam was given to relieve the pain and continued for 3 days. The mice were monitored closely until they woke up after the surgery. During the study, the care and use of animals was conducted in accordance with the regulations of the Association for Assessment and Accreditation of Laboratory Animal Care (AAALAC). After inoculation, the animals were checked daily for morbidity and mortality. At the time of routine monitoring, the animals would be checked for any effects of tumor growth and treatments on normal behavior such as mobility, food and water consumption, body weight gain/loss, eye/hair matting, and any other abnormal effect.
The administration of the test agents began three days after inoculation. CNS tumor-bearing mice were randomly assigned to groups of 8 mice and administered Compound 26 at 10 mg/kg orally (PO) twice a day (BID), Compound 141 at 10 mg/kg PO/BID, encorafenib at 35 mg/kg once a day orally, (PO/QD), or the vehicle alone PO/BID. Measurements for the presence of the A375 luciferase (CRL-1619-LUC2, ATCC, Manassas, VA, USA) cells within the CNS were done with IVIS Lumina III machine. Images were collected twice weekly to follow the growth of the models. The tumor-bearing mice were weighed and intraperitoneally administered luciferin (Perkin Elmer Inc-122799) at a dosage of 150 mg/kg. After 10 min, mice were pre-anesthetized with the mixture gas of oxygen and isoflurane. The bioluminescence value at 15 min post luciferin injection was recorded as the final value and plotted. The endpoint for individual mice was reached when the mouse body weight decreased by 20% when compared to their starting weight.

The values that follow come from patent US20260297060A1, “COMPOUNDS FOR THE DEGRADATION OF MUTANT BRAF” (C4 THERAPEUTICS, INC., priority 2023, published 2026).

Each structure is given as a SMILES string.

For the compound `COC(=O)N[C@@H](C)CNc1nccc(-c2cn(C(C)C)nc2-c2cc(Cl)cc(NS(C)(=O)=O)c2F)n1` [Encorafenib, encorafenib, reference compound], the median survival is on record as 46 days.
